System: dox-inducible GFP expression cassette
Test: Dox-inducible GFP expression cassette integrated into AAVS1 locus of iPSCs
Assay type: cell-based, human
Experimental: This Example describes an experiment in which a green fluorescent protein expression cassette was integrated into the AAVS1 gene locus as illustrated in FIG. 21. AAVS1 ZFN mRNA and donor plasmid were delivered into iPSCs via electroporation on Day −7. One week later (Day 0), puromycin was added (0.3 μg/mL) to the tissue culture to begin positive selection for cells having undergone targeted integration. Doxycycline was added at Day 15 and maintained in culture at 3 different doses (0.3, 1, and 3 μg/mL) to induce expression of the dox-inducible GFP expression cassette. […] Cells were maintained in the presence of doxycycline for 13 days. During this period, the 3 μg/mL dose of doxycycline yielded the highest level of inducible GFP transgene expression (94%; FIG. 22). This high level of expression was sustained while doxycycline was present in culture. Cells were maintained in puromycin as well as doxycycline from Day 15-28 and were further positively selected (increase from ˜50% to ˜70% of alleles with targeted integration).

Row | SMILES | Inducible GFP transgene expression (3 μg/mL doxycycline, iPSCs, maintained 13 days) [%] | Alleles with targeted integration after positive selection (puromycin as well as doxycycline, Day 15-28, increase from ~50%) [%]
1 | C[C@H]1c2cccc(O)c2C(=O)C2=C(O)[C@]3(O)C(=O)C(C(N)=O)=C(O)[C@@H](N(C)C)[C@@H]3[C@@H](O)[C@@H]21 [doxycycline] | 94 | 
2 | COc1ccc(C[C@H](N)C(=O)N[C@H]2[C@@H](O)[C@H](n3cnc4c(N(C)C)ncnc43)O[C@@H]2CO)cc1 [puromycin] |  | ~70

— patent US20230392118A1, “GENERATION OF CD4+ EFFECTOR AND REGULATORY T CELLS FROM HUMAN PLURIPOTENT STEM CELLS” (Sangamo Therapeutics, Inc., priority 2020, published 2023)
